What was measured:
C-Myc oncogenic protein = test: Western blot, C-Myc expression; format: cell-based; settings: all the tested cell lines
Description: (§1) Over-expression of this oncogene could result in tumor cell proliferation and migration and therefore its inhibition may halt tumor growth. Other pro-apoptotic (Bid, Bax, caspase-3 & -9) and anti-apoptotic (Bcl-xL) proteins were also modulated by compound it as evident from western blot analysis and as confirmed by annexin V study (FIG. 7).
(§2) The MCF-7, SKBR3 and HCT116 total cell lysate were prepared after 24 hours of treatment with compound it at IC50 and DIC50 doses by using 1× laemmli buffer. Total protein concentration was then estimated for each sample and 15-30 μg of protein lysate were loaded equally on 12% SDS-PAGE gel in order to detect various proteins expression levels. In short, the membrane was incubated with different primary antibodies (as mentioned in above section) (1:1000) overnight after blocking with 5% non-fat milk solution for 1 hour. The membrane was then re-probed with respective mouse/rabbit secondary antibodies (1:2000) for 1 h, and later developed by enhanced chemiluminescence (ECL) method by using a Chemidoc MP (BioRad, Germany).

[1] = system: Bid, Bax, caspase-3 & -9, Bcl-xL; test: Western blot and annexin V, pro- and anti-apoptotic proteins; format: cell-based; settings: western blot, confirmed by annexin V study
Description: as §1, §2
The apoptotic level was measured using a kit method as per supplier's protocol. […] 2×10^6 cells were counted and re-suspended in 1 mL of binding buffer (1×). […] 400 μL of IX binding buffer was finally added to the cells and analyzed immediately by using by a flow cytometer (BD, Accuri C6).

tubulin = test: Tubulin polymerization / microtubule formation (immunofluorescence and kit method); format: cell-based; settings: in comparison to colchicine and taxol (positive controls); FIGS. 4A and 4B
Description: Cell synchronization and tubulin study: The antiproliferative effect of the compound it was tested on MCF7 cells which were synchronized at specific phases of the cell cycle. […] One way of inhibiting cell proliferation in G2/M phase is by altering equilibrium between polymerization and depolymerization of microtubule proteins which is required for active mitotic cell division.
An immunofluorescence method is used for detecting tubulin polymerization effect of compound 1t. The cells (5×10^4/well) were plated overnight on coverslips on a six well plate and treated with IC50 concentration of compound 1t, taxol and colchicine for 24 hours. After treatment, the cells were rinsed twice with PBS, fixed with 3.7% paraformaldehyde, and permeabilized with 0.1% Triton X-100. The cells were then blocked with 1% BSA in PBS for 1 hour before further incubation with anti-p-tubulin mouse monoclonal antibody overnight at 4° C. (Cell Signaling, San Francisco, CA). […]
Tubulin polymerization was measured in vitro using the Tubulin Polymerization Assay kit (Cytoskeleton, Denver, CO). […] The polymerization of tubulin was monitored as fluorescence at 37° C. for 60 min, and the reading speed was programmed at 1 cycle/min with excitation and emission wavelengths of 360 and 450 nm, respectively, using the Varioskan® Flash spectral scanning multimode reader (Thermo Fisher Scientific™). […]

transketolase = target: T1, transketolase (Homo sapiens, UniProt P29401); test: DARTS proteomic assay; format: binding; settings: dose-dependent manner, FIG. 10
T1 construct: HEK293T cells were lysed using M-PER; endogenous in cells; host or cells: HEK293T lysate
Description: (§3) The unique properties of compound it prompted an in-depth analysis to explore its potential novel targets.
As TKT reaction plays a pivotal role in pentose phosphate pathway, inhibition of TKT will suppress the pentose phosphate pathway and interrupt the synthesis of coenzymes, ATP, CoA, NAD(P)+, FAD, RNA, and DNA in cancer cells. The over-expressed TKT is reported in many cancer cells, tissues, and patients, wherein it regulates proliferation and viability. A strategy of silencing TKT has shown significant effect in reducing tumor burden in gastric cancer cells. Recent studies have shown that targeting TKT has clinical relevance in cancer therapy, as it can counteract the effect of oxidative stress, a critical factor in cancer development.
A DARTS assay was used to assess the binding of compound 1t. HEK293T cells were lysed using M-PER (Thermo Scientific, Inc.) supplemented with protease and phosphatase inhibitors (Lysis buffer). 4.7 mg/mL of protein and TNC buffer (10 mM Tris, 140 mMNaCl, 5 mM CaCl2)) was added, compound it was diluted in DMSO to 3 different concentrations (0.01 μM, 0.1 μM, 1 μM) and incubated for one hour at room temperature. Trypsin (Promega) was added and incubated for 3 hours at 37° C. Thereafter, M-PER lysis buffer was added and the samples were concentrated with Microcon 10K centrifugal filters. […]

[2] = target: T2, dihydrolipoamide dehydrogenase (Homo sapiens, UniProt P09622); test: DARTS proteomic assay; format: binding; settings: FIG. 15
T2 construct: HEK293T cells were lysed using M-PER; endogenous in cells; host or cells: HEK293T lysate
Description: as §3
Dihydrolipoamide dehydrogenase (DLD) is a mitochondrial enzyme involved in metabolic process that is encoded by the DLD gene. Not many studies have been done to identify the direct involvement of this enzyme in cancers. However, a deregulated level of DLD may modulate mitochondrial-mediated diseases and may impair normal metabolic processes. […] The presently disclosed data is encouraging and indicates compound it may potentially be used to target multiple key enzymes that are involved in tumor development and progression.
A DARTS assay was used to assess the binding of compound 1t. HEK293T cells were lysed using M-PER (Thermo Scientific, Inc.) supplemented with protease and phosphatase inhibitors (Lysis buffer). 4.7 mg/mL of protein and TNC buffer (10 mM Tris, 140 mMNaCl, 5 mM CaCl2)) was added, compound it was diluted in DMSO to 3 different concentrations (0.01 μM, 0.1 μM, 1 μM) and incubated for one hour at room temperature. Trypsin (Promega) was added and incubated for 3 hours at 37° C. Thereafter, M-PER lysis buffer was added and the samples were concentrated with Microcon 10K centrifugal filters. The proteins were identified by gel electrophoresis liquid chromatography mass spectroscopy (GelLCMS).

p21 = test: Western blot, p21 expression; format: cell-based; settings: HCT116 colon cancer cells
Description: as §2

T1 sequence (P29401 whole entry): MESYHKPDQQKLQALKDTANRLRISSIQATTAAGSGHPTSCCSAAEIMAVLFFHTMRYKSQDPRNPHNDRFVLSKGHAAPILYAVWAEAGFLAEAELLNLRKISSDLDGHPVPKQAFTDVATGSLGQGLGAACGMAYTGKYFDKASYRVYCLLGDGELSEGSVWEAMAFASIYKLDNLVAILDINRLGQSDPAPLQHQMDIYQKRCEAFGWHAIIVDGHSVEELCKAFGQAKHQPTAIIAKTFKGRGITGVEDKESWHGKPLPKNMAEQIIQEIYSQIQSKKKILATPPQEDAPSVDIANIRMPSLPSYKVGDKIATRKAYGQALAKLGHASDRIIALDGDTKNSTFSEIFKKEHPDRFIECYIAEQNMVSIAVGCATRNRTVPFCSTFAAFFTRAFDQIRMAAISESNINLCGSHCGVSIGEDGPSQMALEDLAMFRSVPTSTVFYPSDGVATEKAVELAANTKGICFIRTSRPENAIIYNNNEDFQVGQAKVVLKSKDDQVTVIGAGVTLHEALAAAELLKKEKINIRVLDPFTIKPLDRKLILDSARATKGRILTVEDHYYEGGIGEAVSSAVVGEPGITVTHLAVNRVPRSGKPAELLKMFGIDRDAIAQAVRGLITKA
T2 sequence (P09622 36-509): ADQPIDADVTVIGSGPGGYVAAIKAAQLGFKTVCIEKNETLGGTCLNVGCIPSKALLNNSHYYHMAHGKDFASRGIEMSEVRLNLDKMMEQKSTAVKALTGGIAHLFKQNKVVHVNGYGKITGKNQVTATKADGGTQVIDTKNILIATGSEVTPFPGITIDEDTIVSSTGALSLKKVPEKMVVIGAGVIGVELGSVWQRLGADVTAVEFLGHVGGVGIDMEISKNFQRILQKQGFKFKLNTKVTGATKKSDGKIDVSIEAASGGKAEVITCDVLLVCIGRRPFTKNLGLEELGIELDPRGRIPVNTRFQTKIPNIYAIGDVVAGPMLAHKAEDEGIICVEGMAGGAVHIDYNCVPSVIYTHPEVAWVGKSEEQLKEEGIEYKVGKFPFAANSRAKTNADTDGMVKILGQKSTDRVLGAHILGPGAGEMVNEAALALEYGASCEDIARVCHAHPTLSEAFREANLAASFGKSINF

CC1(C)[C@H]2COc3ccc4ccccc4c3[C@H]2N=C2SC(c3ccccc3)=C(c3ccccc3)N21 [Compound 1t]
C-Myc oncogenic protein (C-Myc oncogenic protein): inhibited | Pro-apoptotic (Bid, Bax, caspase-3 & -9) and anti-apoptotic (Bcl-xL) proteins [1]: modulated | Inhibition of microtubule formation (tubulin): strong inhibition | Affinity on transketolase (transketolase): strong affinity | Regulation of dihydrolipoamide dehydrogenase [2]: regulates this enzyme | Expression of p21 (p21): overexpressed

Source: patent publication US12157745B2, “Heterocyclic systems and pharmaceutical compositions thereof” (University of Sharjah, priority 2018, dated 2024)
